Measured values published in PubChem BioAssay AID330 (DTP/NCI, 2004).
Several values for one entry are separate records, joined by “and”; a condition that tells them apart may be missing. Equal entries are not always repeated. Inconclusive results and toxic doses are left out. How the source made its calls: active means survival T/C of 150% or more; inactive means T/C below 125% in these data. Bridge positions count the residues as written; N and C are the ends. Peptide text beside a SMILES is read from it. I, II: the chains in the order shown. * marks the point of attachment. Cbz = O=C(OCc1ccccc1)*

System: P388 leukemia ip, CD2F1 mice, survival T/C
Assay: NCI In Vivo Anticancer Drug Screen. Data for tumor model P388 Leukemia (intraperitoneal) in CD2F1 (CDF1) mice
Details: endpoint: median survival time, higher = longer survival
How it was run: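 Mice carrying the transplanted tumor received test compound or vehicle. Survival was recorded in each group, and the value is the treated-group measurement divided by that of the vehicle-treated control group.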

[1] = dose: 100.0 mg/kg/injection, schedule: Q04DX003 (ip), vehicle: Klucel (hydroxypropylcellulose) (HPC)
[2] = dose: 200.0 mg/kg/injection, schedule: Q04DX003 (ip), vehicle: Klucel (hydroxypropylcellulose) (HPC)
[3] = dose: 50.0 mg/kg/injection, schedule: Q01DX009 (ip), vehicle: saline with Tween-80
[4] = dose: 100.0 mg/kg/injection, schedule: Q01DX009 (ip), vehicle: saline with Tween-80
[5] = dose: 200.0 mg/kg/injection, schedule: Q01DX009 (ip), vehicle: saline with Tween-80
[6] = dose: 12.5 mg/kg/injection, schedule: Q01DX009 (ip), vehicle: saline with Tween-80
[7] = dose: 25.0 mg/kg/injection, schedule: Q01DX009 (ip), vehicle: saline with Tween-80
[8] = dose: 50.0 mg/kg/injection, schedule: Q01DX005 (ip), vehicle: Klucel (hydroxypropylcellulose) (HPC)
[9] = dose: 50.0 mg/kg/injection, schedule: Q01DX005 (ip), vehicle: saline with Tween-80
[10] = dose: 100.0 mg/kg/injection, schedule: Q01DX005 (ip), vehicle: saline with Tween-80
[11] = dose: 200.0 mg/kg/injection, schedule: Q01DX005 (ip), vehicle: saline with Tween-80

Measured: T/C

COC(=O)CCCCc1ccc(CCCC(=O)OC)c2ccccc12
inactive: dose: 50.0 mg/kg/injection, schedule: Q01DX009 (ip), vehicle: other 102 % of control | dose: 100.0 mg/kg/injection, schedule: Q01DX009 (ip), vehicle: other 102 % of control | dose: 200.0 mg/kg/injection, schedule: Q01DX009 (ip), vehicle: other 105 % of control

O=C(Nc1ccccc1Cl)OCC(CCl)(CCl)CCl
inactive: dose: 50.0 mg/kg/injection, schedule: Q01DX009 (ip), vehicle: Klucel (hydroxypropylcellulose) (HPC) 100 % of control | dose: 100.0 mg/kg/injection, schedule: Q01DX009 (ip), vehicle: Klucel (hydroxypropylcellulose) (HPC) 106 % of control | dose: 200.0 mg/kg/injection, schedule: Q01DX009 (ip), vehicle: Klucel (hydroxypropylcellulose) (HPC) 95 % of control

CN(C)C1CC(N2c3ccccc3Sc3ccc(Cl)cc32)C1 (centres undefined)
inactive: dose: 50.0 mg/kg/injection, schedule: Q04DX003 (ip), vehicle: Klucel (hydroxypropylcellulose) (HPC) 107 % of control | [1] 104 % of control | [2] 107 % of control

C[N+](C)(C)/N=C(\[O-])Nc1ccccc1
inactive: [3] 100 % of control | [4] 104 % of control | [5] 89 % of control

O=c1oc(-c2ccc(Cl)cc2)nc2cc(Cl)ccc12
inactive: dose: 6.25 mg/kg/injection, schedule: Q01DX009 (ip), vehicle: saline with Tween-80 96 % of control | [6] 100 % of control | [7] 100 % of control | [3] 99 % of control

CN(C(=O)C1(C)OC1c1ccccc1)c1ccccc1 (centres undefined)
inactive: [1] 96 % of control | [2] 100 % of control | dose: 400.0 mg/kg/injection, schedule: Q04DX003 (ip), vehicle: Klucel (hydroxypropylcellulose) (HPC) 94 % of control

COC(=O)CC(c1ccc(OC)cc1)c1cc2c(cc1OC)OCO2 (centres undefined)
inactive: dose: 50.0 mg/kg/injection, schedule: Q01DX005 (ip), vehicle: distilled water + Tween-80 97 % of control | dose: 100.0 mg/kg/injection, schedule: Q01DX005 (ip), vehicle: distilled water + Tween-80 97 % of control | dose: 200.0 mg/kg/injection, schedule: Q01DX005 (ip), vehicle: distilled water + Tween-80 97 % of control

CC1NC(=O)C(NC(=O)OCc2ccccc2)COC(=O)C(C(C)C)NC(=O)C2CSSCC(NC1=O)C(=O)NC(C(C)C)C(=O)OCC(NC(=O)OCc1ccccc1)C(=O)NC(C)C(=O)N2 (centres undefined) (I: Cbz-SACV / II: Cbz-SACV; ester I:1-II:C, I:C-II:1; disulfide I:3-II:3; configuration not given here)
inactive: dose: 1.25 mg/kg/injection, schedule: Q01DX005 (ip), vehicle: Klucel (hydroxypropylcellulose) (HPC) 101 % of control | dose: 2.5 mg/kg/injection, schedule: Q01DX005 (ip), vehicle: Klucel (hydroxypropylcellulose) (HPC) 101 % of control | dose: 5.0 mg/kg/injection, schedule: Q01DX005 (ip), vehicle: Klucel (hydroxypropylcellulose) (HPC) 99 % of control | dose: 10.0 mg/kg/injection, schedule: Q01DX005 (ip), vehicle: Klucel (hydroxypropylcellulose) (HPC) 96 % of control | dose: 12.5 mg/kg/injection, schedule: Q01DX005 (ip), vehicle: Klucel (hydroxypropylcellulose) (HPC) 96 % of control | dose: 25.0 mg/kg/injection, schedule: Q01DX005 (ip), vehicle: Klucel (hydroxypropylcellulose) (HPC) 96 % of control | [8] 99 % of control

N=C1SCC(=O)C1C(=O)O (centres undefined)
inactive: [9] 105 % of control | [10] 119 % of control | [11] 110 % of control

O=[N+]([O-])c1ccc(OS(=O)(=O)/C=C/c2ccccc2)cc1
inactive: dose: 100.0 mg/kg/injection, schedule: Q01DX001 (ip), vehicle: Klucel (hydroxypropylcellulose) (HPC) 99 % of control | dose: 200.0 mg/kg/injection, schedule: Q01DX001 (ip), vehicle: Klucel (hydroxypropylcellulose) (HPC) 100 % of control | dose: 400.0 mg/kg/injection, schedule: Q01DX001 (ip), vehicle: Klucel (hydroxypropylcellulose) (HPC) 94 % of control

C#CCOc1ccc(C)cc1
inactive: [7] 108 % of control | [3] 108 % of control | [4] 113 % of control

[Cl][Eu]([Cl])[Cl]
inactive: dose: 50.0 mg/kg/injection, schedule: Q01DX009 (ip), vehicle: saline 89 % of control

CCC(=O)OCC1OC(OC2c3cc4c(cc3C(c3cc(OC)c(OC)c(OC)c3)C3C(=O)OCC23)OCO4)C(OC(=O)CC)C(OC(=O)CC)C1OC(=O)CC (centres undefined)
inactive: dose: 12.5 mg/kg/injection, schedule: Q01DX005 (ip), vehicle: saline with Tween-80 98 % of control | dose: 25.0 mg/kg/injection, schedule: Q01DX005 (ip), vehicle: saline with Tween-80 91 % of control | [9] 88 % of control and 89 % of control

COC(=O)n1oc2ccc(Br)cc2c1=O
inactive: [8] 98 % of control | dose: 100.0 mg/kg/injection, schedule: Q01DX005 (ip), vehicle: Klucel (hydroxypropylcellulose) (HPC) 100 % of control | dose: 200.0 mg/kg/injection, schedule: Q01DX005 (ip), vehicle: Klucel (hydroxypropylcellulose) (HPC) 106 % of control

CC1CC[P+](C)(c2ccccc2)c2ccccc21 (centres undefined)
inactive: dose: 6.25 mg/kg/injection, schedule: Q04DX002 (ip), vehicle: saline 100 % of control | dose: 12.5 mg/kg/injection, schedule: Q04DX002 (ip), vehicle: saline 103 % of control

COc1ccccc1/C=C(/C)[N+](=O)[O-]
inactive: dose: 10.0 mg/kg/injection, schedule: Q01DX010 (ip), vehicle: saline 109 % of control | dose: 14.0 mg/kg/injection, schedule: Q01DX010 (ip), vehicle: saline 90 % of control | dose: 22.0 mg/kg/injection, schedule: Q01DX010 (ip), vehicle: saline 100 % of control | dose: 33.0 mg/kg/injection, schedule: Q01DX010 (ip), vehicle: saline 109 % of control | dose: 50.0 mg/kg/injection, schedule: Q01DX010 (ip), vehicle: saline 100 % of control | dose: 75.0 mg/kg/injection, schedule: Q01DX010 (ip), vehicle: saline 118 % of control

O=[n+]1c2c(n([O-])c3ccccc31)CCC2
inactive: [3] 98 % of control | [4] 100 % of control | [5] 108 % of control

Cn1c2ccccc2c(=O)c2c(O)cc3c(c21)CC(C1(C)CO1)O3 (centres undefined)
inactive: dose: 2.0 mg/kg/injection, schedule: Q01DX005 (ip), vehicle: Klucel (hydroxypropylcellulose) (HPC) 99 % of control | dose: 4.0 mg/kg/injection, schedule: Q01DX005 (ip), vehicle: Klucel (hydroxypropylcellulose) (HPC) 105 % of control and 107 % of control | dose: 8.0 mg/kg/injection, schedule: Q01DX005 (ip), vehicle: Klucel (hydroxypropylcellulose) (HPC) 103 % of control and 107 % of control | dose: 16.0 mg/kg/injection, schedule: Q01DX005 (ip), vehicle: Klucel (hydroxypropylcellulose) (HPC) 108 % of control and 116 % of control

COc1ccc(Cc2cc3c(cc2OCC(=O)Nc2ncccn2)OCO3)cc1
inactive: [9] 108 % of control | [10] 88 % of control | [11] 87 % of control

COc1cccc2c1C(=O)c1c(O)c3c(c(O)c1C2=O)C[C@@](O)(/C(C)=N/NC(=O)c1ccc(S(N)(=O)=O)cc1)C[C@@H]3OC1CC(N)C(O)C(C)O1 (some centres undefined)
active: dose: 0.78 mg/kg/injection, schedule: Q01DX009 (ip), vehicle: water 150 % of control | dose: 1.56 mg/kg/injection, schedule: Q01DX009 (ip), vehicle: water 161 % of control | dose: 3.13 mg/kg/injection, schedule: Q01DX009 (ip), vehicle: water 154 % of control and 182 % of control | dose: 6.25 mg/kg/injection, schedule: Q01DX009 (ip), vehicle: water 178 % of control and 201 % of control | dose: 12.5 mg/kg/injection, schedule: Q01DX001 (ip), vehicle: water 161 % of control | dose: 12.5 mg/kg/injection, schedule: Q01DX009 (ip), vehicle: water 196 % of control and 214 % of control | dose: 25.0 mg/kg/injection, schedule: Q01DX001 (ip), vehicle: water 188 % of control | dose: 37.5 mg/kg/injection, schedule: Q04DX003 (ip), vehicle: water 203 % of control
inactive: dose: 4.7 mg/kg/injection, schedule: Q04DX003 (ip), vehicle: water 105 % of control and 106 % of control | dose: 18.8 mg/kg/injection, schedule: Q04DX003 (ip), vehicle: water 123 % of control | dose: 75.0 mg/kg/injection, schedule: Q04DX003 (ip), vehicle: water 122 % of control | dose: 150.0 mg/kg/injection, schedule: Q04DX003 (ip), vehicle: water 100 % of control and 93 % of control

CCOC(=O)CN1CCCC(C(=O)CC2(O)C3(Cl)C4(Cl)C5(Cl)C(Cl)(Cl)C6(Cl)C4(Cl)C2(Cl)C6(Cl)C53Cl)C1 (centres undefined)
inactive: [6] 97 % of control | [7] 98 % of control | [3] 101 % of control | [4] 100 % of control
